According to the supplement of paper PMC9912026:

System: A375_NRAS_Q61K_DOXind
Assay: pERK immunofluorescence relative to doxycycline-induced cells with 1 uM vemurafenib alone; higher = more ERK phosphorylation (less pathway inhibition)
Conditions: drug treatment time 24 h, doxycycline 1000 ng/mL, doxycycline pre-induction time 24 h, vemurafenib background 1 µM
Method in brief: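 A375 cells with doxycycline-inducible FLAG-tagged mutant NRAS were given doxycycline or mock for 24 h. They then received two-drug dose combinations with a third drug held at 1 uM for 24 h. Fixed cells were stained for phospho-ERK T202/Y204 and imaged at 10× on an Operetta, with FLAG-negative cells excluded. The cytosolic population mean is normalised to induced cells given the 1 uM drug alone; the value is the mean of 2 technical replicates. pERK was measured by immunofluorescence with FLAG-negative cells excluded. Averages of 2 technical replicates.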

CNc1ncc2cc(-c3cc(NC(=O)NCCC(C)(C)C)c(F)cc3C)c(C)nc2n1 + O=C(c1ccc(F)c(F)c1Nc1ccc(I)cc1F)N1CC(O)([C@@H]2CCCCN2)C1 [Cobimetinib]
pERK immunofluorescence (drug A concentration 0 µM, drug B concentration 0.0001 µM): 1.08
pERK immunofluorescence (drug A concentration 0 µM, drug B concentration 0.000316228 µM): 1.08
pERK immunofluorescence (drug A concentration 0 µM, drug B concentration 0.001 µM): 1.06
pERK immunofluorescence (drug A concentration 0 µM, drug B concentration 0.00316228 µM): 1.06
pERK immunofluorescence (drug A concentration 0 µM, drug B concentration 0.01 µM): 0.844
pERK immunofluorescence (drug A concentration 0 µM, drug B concentration 0.0316228 µM): 0.515
pERK immunofluorescence (drug A concentration 0 µM, drug B concentration 0.1 µM): 0.168
pERK immunofluorescence (drug A concentration 0 µM, drug B concentration 0.316228 µM): 0.0479
pERK immunofluorescence (drug A concentration 0 µM, drug B concentration 1 µM): 0.0212
pERK immunofluorescence (drug A concentration 0.000316228 µM, drug B concentration 0 µM): 0.724
pERK immunofluorescence (drug A concentration 0.000316228 µM, drug B concentration 0.0001 µM): 0.706
pERK immunofluorescence (drug A concentration 0.000316228 µM, drug B concentration 0.000316228 µM): 0.786
pERK immunofluorescence (drug A concentration 0.000316228 µM, drug B concentration 0.001 µM): 0.747
pERK immunofluorescence (drug A concentration 0.000316228 µM, drug B concentration 0.00316228 µM): 0.709
pERK immunofluorescence (drug A concentration 0.000316228 µM, drug B concentration 0.01 µM): 0.579
pERK immunofluorescence (drug A concentration 0.000316228 µM, drug B concentration 0.0316228 µM): 0.323
pERK immunofluorescence (drug A concentration 0.000316228 µM, drug B concentration 0.1 µM): 0.0754
pERK immunofluorescence (drug A concentration 0.000316228 µM, drug B concentration 0.316228 µM): 0.026
pERK immunofluorescence (drug A concentration 0.000316228 µM, drug B concentration 1 µM): 0.0165
pERK immunofluorescence (drug A concentration 0.001 µM, drug B concentration 0 µM): 0.696
pERK immunofluorescence (drug A concentration 0.001 µM, drug B concentration 0.0001 µM): 0.745
pERK immunofluorescence (drug A concentration 0.001 µM, drug B concentration 0.000316228 µM): 0.758
pERK immunofluorescence (drug A concentration 0.001 µM, drug B concentration 0.001 µM): 0.771
pERK immunofluorescence (drug A concentration 0.001 µM, drug B concentration 0.00316228 µM): 0.687
pERK immunofluorescence (drug A concentration 0.001 µM, drug B concentration 0.01 µM): 0.45
pERK immunofluorescence (drug A concentration 0.001 µM, drug B concentration 0.0316228 µM): 0.16
pERK immunofluorescence (drug A concentration 0.001 µM, drug B concentration 0.1 µM): 0.0453
pERK immunofluorescence (drug A concentration 0.001 µM, drug B concentration 0.316228 µM): 0.0201
pERK immunofluorescence (drug A concentration 0.001 µM, drug B concentration 1 µM): 0.016
pERK immunofluorescence (drug A concentration 0.00316228 µM, drug B concentration 0 µM): 0.664
pERK immunofluorescence (drug A concentration 0.00316228 µM, drug B concentration 0.0001 µM): 0.697
pERK immunofluorescence (drug A concentration 0.00316228 µM, drug B concentration 0.000316228 µM): 0.767
pERK immunofluorescence (drug A concentration 0.00316228 µM, drug B concentration 0.001 µM): 0.651
pERK immunofluorescence (drug A concentration 0.00316228 µM, drug B concentration 0.00316228 µM): 0.592
pERK immunofluorescence (drug A concentration 0.00316228 µM, drug B concentration 0.01 µM): 0.268
pERK immunofluorescence (drug A concentration 0.00316228 µM, drug B concentration 0.0316228 µM): 0.0865
pERK immunofluorescence (drug A concentration 0.00316228 µM, drug B concentration 0.1 µM): 0.0262
pERK immunofluorescence (drug A concentration 0.00316228 µM, drug B concentration 0.316228 µM): 0.0166
pERK immunofluorescence (drug A concentration 0.00316228 µM, drug B concentration 1 µM): 0.0158
pERK immunofluorescence (drug A concentration 0.01 µM, drug B concentration 0 µM): 0.583
pERK immunofluorescence (drug A concentration 0.01 µM, drug B concentration 0.0001 µM): 0.608
pERK immunofluorescence (drug A concentration 0.01 µM, drug B concentration 0.000316228 µM): 0.593
pERK immunofluorescence (drug A concentration 0.01 µM, drug B concentration 0.001 µM): 0.537
pERK immunofluorescence (drug A concentration 0.01 µM, drug B concentration 0.00316228 µM): 0.359
pERK immunofluorescence (drug A concentration 0.01 µM, drug B concentration 0.01 µM): 0.109
pERK immunofluorescence (drug A concentration 0.01 µM, drug B concentration 0.0316228 µM): 0.0388
pERK immunofluorescence (drug A concentration 0.01 µM, drug B concentration 0.1 µM): 0.0196
pERK immunofluorescence (drug A concentration 0.01 µM, drug B concentration 0.316228 µM): 0.0161
pERK immunofluorescence (drug A concentration 0.01 µM, drug B concentration 1 µM): 0.0166
pERK immunofluorescence (drug A concentration 0.0316228 µM, drug B concentration 0 µM): 0.455
pERK immunofluorescence (drug A concentration 0.0316228 µM, drug B concentration 0.0001 µM): 0.528
pERK immunofluorescence (drug A concentration 0.0316228 µM, drug B concentration 0.000316228 µM): 0.47
pERK immunofluorescence (drug A concentration 0.0316228 µM, drug B concentration 0.001 µM): 0.389
pERK immunofluorescence (drug A concentration 0.0316228 µM, drug B concentration 0.00316228 µM): 0.185
pERK immunofluorescence (drug A concentration 0.0316228 µM, drug B concentration 0.01 µM): 0.0635
pERK immunofluorescence (drug A concentration 0.0316228 µM, drug B concentration 0.0316228 µM): 0.0285
pERK immunofluorescence (drug A concentration 0.0316228 µM, drug B concentration 0.1 µM): 0.0172
pERK immunofluorescence (drug A concentration 0.0316228 µM, drug B concentration 0.316228 µM): 0.0158
pERK immunofluorescence (drug A concentration 0.0316228 µM, drug B concentration 1 µM): 0.0155
pERK immunofluorescence (drug A concentration 0.1 µM, drug B concentration 0 µM): 0.306
pERK immunofluorescence (drug A concentration 0.1 µM, drug B concentration 0.0001 µM): 0.31
pERK immunofluorescence (drug A concentration 0.1 µM, drug B concentration 0.000316228 µM): 0.287
pERK immunofluorescence (drug A concentration 0.1 µM, drug B concentration 0.001 µM): 0.187
pERK immunofluorescence (drug A concentration 0.1 µM, drug B concentration 0.00316228 µM): 0.0869
pERK immunofluorescence (drug A concentration 0.1 µM, drug B concentration 0.01 µM): 0.0387
pERK immunofluorescence (drug A concentration 0.1 µM, drug B concentration 0.0316228 µM): 0.0223
pERK immunofluorescence (drug A concentration 0.1 µM, drug B concentration 0.1 µM): 0.0174
pERK immunofluorescence (drug A concentration 0.1 µM, drug B concentration 0.316228 µM): 0.0169
pERK immunofluorescence (drug A concentration 0.1 µM, drug B concentration 1 µM): 0.0168
pERK immunofluorescence (drug A concentration 0.316228 µM, drug B concentration 0 µM): 0.122
pERK immunofluorescence (drug A concentration 0.316228 µM, drug B concentration 0.0001 µM): 0.116
pERK immunofluorescence (drug A concentration 0.316228 µM, drug B concentration 0.000316228 µM): 0.108
pERK immunofluorescence (drug A concentration 0.316228 µM, drug B concentration 0.001 µM): 0.077
pERK immunofluorescence (drug A concentration 0.316228 µM, drug B concentration 0.00316228 µM): 0.0399
pERK immunofluorescence (drug A concentration 0.316228 µM, drug B concentration 0.01 µM): 0.0224
pERK immunofluorescence (drug A concentration 0.316228 µM, drug B concentration 0.0316228 µM): 0.0172
pERK immunofluorescence (drug A concentration 0.316228 µM, drug B concentration 0.1 µM): 0.0164
pERK immunofluorescence (drug A concentration 0.316228 µM, drug B concentration 0.316228 µM): 0.0168
pERK immunofluorescence (drug A concentration 0.316228 µM, drug B concentration 1 µM): 0.017
pERK immunofluorescence (drug A concentration 1 µM, drug B concentration 0 µM): 0.0463
pERK immunofluorescence (drug A concentration 1 µM, drug B concentration 0.0001 µM): 0.045
pERK immunofluorescence (drug A concentration 1 µM, drug B concentration 0.000316228 µM): 0.0414
pERK immunofluorescence (drug A concentration 1 µM, drug B concentration 0.001 µM): 0.0293
pERK immunofluorescence (drug A concentration 1 µM, drug B concentration 0.00316228 µM): 0.0209
pERK immunofluorescence (drug A concentration 1 µM, drug B concentration 0.01 µM): 0.0181
pERK immunofluorescence (drug A concentration 1 µM, drug B concentration 0.0316228 µM): 0.0173
pERK immunofluorescence (drug A concentration 1 µM, drug B concentration 0.1 µM): 0.0169
pERK immunofluorescence (drug A concentration 1 µM, drug B concentration 0.316228 µM): 0.0172
pERK immunofluorescence (drug A concentration 1 µM, drug B concentration 1 µM): 0.0172
pERK immunofluorescence (drug A concentration 3.16228 µM, drug B concentration 0 µM): 0.0225
pERK immunofluorescence (drug A concentration 3.16228 µM, drug B concentration 0.0001 µM): 0.0225
pERK immunofluorescence (drug A concentration 3.16228 µM, drug B concentration 0.000316228 µM): 0.0215
pERK immunofluorescence (drug A concentration 3.16228 µM, drug B concentration 0.001 µM): 0.0203
pERK immunofluorescence (drug A concentration 3.16228 µM, drug B concentration 0.00316228 µM): 0.0207
pERK immunofluorescence (drug A concentration 3.16228 µM, drug B concentration 0.01 µM): 0.0173
pERK immunofluorescence (drug A concentration 3.16228 µM, drug B concentration 0.0316228 µM): 0.0169
pERK immunofluorescence (drug A concentration 3.16228 µM, drug B concentration 0.1 µM): 0.0175
pERK immunofluorescence (drug A concentration 3.16228 µM, drug B concentration 0.316228 µM): 0.0169
pERK immunofluorescence (drug A concentration 3.16228 µM, drug B concentration 1 µM): 0.0164
pERK immunofluorescence (drug A concentration 10 µM, drug B concentration 0 µM): 0.0198
pERK immunofluorescence (drug A concentration 10 µM, drug B concentration 0.0001 µM): 0.0196
pERK immunofluorescence (drug A concentration 10 µM, drug B concentration 0.000316228 µM): 0.0203
pERK immunofluorescence (drug A concentration 10 µM, drug B concentration 0.001 µM): 0.0186
pERK immunofluorescence (drug A concentration 10 µM, drug B concentration 0.00316228 µM): 0.0186
pERK immunofluorescence (drug A concentration 10 µM, drug B concentration 0.01 µM): 0.02
pERK immunofluorescence (drug A concentration 10 µM, drug B concentration 0.0316228 µM): 0.0189
pERK immunofluorescence (drug A concentration 10 µM, drug B concentration 0.1 µM): 0.0179
pERK immunofluorescence (drug A concentration 10 µM, drug B concentration 0.316228 µM): 0.0182
pERK immunofluorescence (drug A concentration 10 µM, drug B concentration 1 µM): 0.0184
